The results in this text go back to patent US20220266206A1, “FORMULATION AND PROCESS FOR MANUFACTURING A HEAT STABLE OIL-IN-WATER EMULSION FOR CANNABIS BEVERAGES IN PLASTIC BOTTLES” (Gaia Botanicals LLC DBA Bluebird Botanicals, priority 2021, published 2022).

Where only a bound is given, the exact number is not on record here.

This data set in a line: Solubility of CBD in MCT oil (fractionated coconut oil). The class given is physicochemical. The following applies: carrier oil: fractionated coconut oil (MCT oil). An excerpt:
In first mixing step 100, cannabinoid extract may be advantageously dissolved into a carrier oil to create oil phase 150. An aspect of the current invention is the use of a carrier oil, which overcomes the issues of aqueous solubility for the cannabinoid extract, particularly CBD. In its pure form, CBD is a non-polar crystalline solid which in the absence of an oil or alcohol will not readily dissolve to form a stable emulsion with the gum blend. By dissolving the CBD in a carrier oil in first mixing step 100, the CBD will be readily dissolved into the oil which increases its suitability for emulsion formation. In an embodiment of the invention, CBD is added to fractionated coconut oil (MCT oil) in first mixing step 100 using an immersion blender to thoroughly mix, then the mixture is transferred to a magnetic stir plate to allow for slow gentle mixing of the oil until the CBD is completely dissolved. First mixing step 100 can comprise immersion blending at a high shear rate followed by a slower mixing utilizing a stir bar. Heat may be used to speed the process but may result on oxidation of the CBD as well as result in off-flavors. MCT oil offers several advantages over other possible carrier oils as it is both colorless and nearly flavorless, and it readily dissolves CBD at concentrations as high as 30%. […]

Turning to `C=C(C)[C@@H]1CCC(C)=C[C@H]1c1c(O)cc(CCCCC)cc1O` [CBD, cannabidiol], the “concentration of CBD readily dissolved in MCT oil” value is given as no more than 30%.
